Results: patent US9682976B2, “Protein kinase C inhibitors and uses thereof” (Rigel Pharmaceuticals, Inc., priority 2012, dated 2017)

What follows are molecules tested on PKC mediated IL-2 production (assay: IL-2 ELISA, human primary T cell, anti CD3+CD28+). Conditions: Homo sapiens, T-cell, 24 h, human primary T cells stimulated with αCD3 and αCD28, 24 hours.
Type: cell-based
Procedure, shortened: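 IL-2 was quantified by ELISA in 24 h supernatants from primary human T cells given a 1 h compound pre-treatment at 37° C. These cells had been expanded from blood mononuclear cells on αCD3/αCD28 with IL-2, and the IL-2 was removed by washing. Stimulation used plate-bound αCD3 ([…]) plus αCD28 (5 μg/ml); the counter assay used PMA (0.5 ng/ml) with ionomycin (0.1 uM) instead.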
`Cn1nnn(-c2cc(Nc3ncc(F)c(N(CC(C)(C)O)[C@@H]4C[C@@H]5CCCN5C(C)(C)C4)n3)c(F)cc2OCC(C)(C)O)c1=O` [Compound 139, 1-(5-(4-(((7R,8aS)-5,5-dimethyloctahydroindolizin-7-yl)(2-hydroxy-2-methylpropyl)amino)-5-fluoropyrimidin-2-ylamino)-4-fluoro-2-(2-hydroxy-2-methylpropoxy)phenyl)-4-methyl-1H-tetrazol-5(4H)-one] was tested, and the EC50 was greater than 10000 nM.
Work on `CC(O)COc1ccc(Nc2ncc(F)c(N[C@@H]3C[C@@H]4CCCN4C(C)(C)C3)n2)cc1-n1cnnn1` (stereo partly drawn) [Compound 206, 1-(4-((4-(((7R,8aS)-5,5-dimethyloctahydroindolizin-7-yl)amino)-5-fluoropyrimidin-2-yl)amino)-2-(1H-tetrazol-1-yl)phenoxy)propan-2-ol] yielded an EC50 of less than 100 nM.
Work on `Cn1nnn(-c2cc(Nc3ncc(F)c(N[C@@H]4C[C@@H]5CCCN5C(C)(C)C4)n3)c(F)cc2O)c1=O` [Compound 89, 1-(5-(4-((7R,8aS)-octahydro-5,5-dimethylindolizin-7-ylamino)-5-fluoropyrimidin-2-ylamino)-4-fluoro-2-hydroxyphenyl)-4-methyl-1H-tetrazol-5(4H)-one] yielded an EC50 of 1000 to 10000 nM.
Molecule `CC1(C)C[C@H](Nc2nc(Nc3ccc(N4CCOCC4)c(C#N)c3)ncc2F)C[C@@H]2CCCN21` [Compound 106, 5-((4-(((7R,8aS)-5,5-dimethyloctahydroindolizin-7-yl)amino)-5-fluoropyrimidin-2-yl)amino)-2-morpholinobenzonitrile] has an EC50 of 100 to 500 nM.
For `COCCOCCOc1ccc(Nc2ncc(F)c(N[C@@H]3C[C@@H]4CCCN4C(C)(C)C3)n2)cc1C#N` [Compound 190, 5-((4-(((7R,8aS)-5,5-dimethyloctahydroindolizin-7-yl)amino)-5-fluoropyrimidin-2-yl)amino)-2-(2-(2-methoxyethoxy)ethoxy)benzonitrile], the EC50 was 100 to 500 nM.
Work on `CN1CCN(c2ccc(Nc3ncc(F)c(N[C@@H]4C[C@@H]5CCCN5C(C)(C)C4)n3)cc2C#N)CC1` [Compound 108, 5-((4-(((7R,8aS)-5,5-dimethyloctahydroindolizin-7-yl)amino)-5-fluoropyrimidin-2-yl)amino)-2-(4-methylpiperazin-1-yl)benzonitrile] yielded an EC50 of less than 100 nM.
With `Cn1nnn(-c2cc(Nc3ncc(F)c(N[C@@H]4C[C@@H]5CCCN5C(C)(C)C4)n3)c(F)cc2OCC2COC2)c1=O` [Compound 166, 1-(5-((4-(((7R,8aS)-5,5-dimethyloctahydroindolizin-7-yl)amino)-5-fluoropyrimidin-2-yl)amino)-4-fluoro-2-(oxetan-3-ylmethoxy)phenyl)-4-methyl-1,4-dihydro-5H-tetrazol-5-one] the EC50 was 100 to 500 nM.
Work on `CC1(C)C[C@H](Nc2nc(Nc3ccc(OC4CCNCC4)c(OC(F)F)c3)ncc2F)C[C@@H]2CCCN21` [Compound 128, N^2-(3-(difluoromethoxy)-4-(piperidin-4-yloxy)phenyl)-N^4-((7R,8aS)-5,5-dimethyloctahydroindolizin-7-yl)-5-fluoropyrimidine-2,4-diamine] yielded an EC50 of 100 to 500 nM.
Molecule `C=Cc1cc(F)c(Nc2ncc(F)c(N[C@@H]3C[C@@H]4CCCN4C(C)(C)C3)n2)cc1-n1nnn(C)c1=O` [Compound 92, 1-(5-(4-((7R,8aS)-octahydro-5,5-dimethylindolizin-7-ylamino)-5-fluoropyrimidin-2-ylamino)-4-fluoro-2-vinylphenyl)-4-methyl-1H-tetrazol-5(4H)-one] has an EC50 of less than 100 nM.
With `Cn1nnn(-c2cc(Nc3ncc(F)c(N[C@@H]4C[C@@H]5CCC(=O)N5C(C)(C)C4)n3)c(F)cc2C2CC2)c1=O` (racemic) [Compound 31, 1-(5-(5-fluoro-4-(hexahydro-5,5-dimethylindolizin-3(5H)-one-7-ylamino)pyrimidin-2-ylamino)-2-cyclopropyl-4-fluorophenyl)-4-methyl-1H-tetrazol-5(4H)-one] the EC50 was 1000 to 10000 nM.
`COCCOc1ccc(Nc2ncc(F)c(N[C@@H]3C[C@@H]4CCCN4C(C)(C)C3)n2)c(F)c1OCCOC` [Compound 160, N4-((7R,8aS)-5,5-dimethyloctahydroindolizin-7-yl)-5-fluoro-N2-(2-fluoro-3,4-bis(2-methoxyethoxy)phenyl)pyrimidine-2,4-diamine] showed an EC50 of 1000 to 10000 nM.
`C[C@H](O)COc1cc(F)c(Nc2ncc(Cl)c(N[C@@H]3C[C@@H]4CCCN4C(C)(C)C3)n2)cc1-n1nnn(C)c1=O` [Compound 235, 1-(5-((5-chloro-4-(((7R,8aS)-5,5-dimethyloctahydroindolizin-7-yl)amino)pyrimidin-2-yl)amino)-4-fluoro-2-((S)-2-hydroxypropoxy)phenyl)-4-methyl-1,4-dihydro-5H-tetrazol-5-one] showed an EC50 of less than 100 nM.
In the case of `CC1(C)CC[C@H]2C[C@@H](Nc3nc(Nc4ccc(OC5COC5)c(OC(F)F)c4)ncc3F)CCN21` [Compound 298, N2-(3-(Difluoromethoxy)-4-(oxetan-3-yloxy)phenyl)-N4-((7S,8aS)-3,3-dimethyloctahydroindolizin-7-yl)-5-fluoropyrimidine-2,4-diamine], the EC50 is reported as 100 to 500 nM.
`CC1(C)C[C@H](Nc2nc(Nc3ccc(NCC(O)CCl)c(C(F)(F)F)c3)ncc2F)C[C@@H]2CCCN21` (stereo partly drawn) [Compound 321, 1-(4-(4-((7R,8aS)-octahydro-5,5-dimethylindolizin-7-ylamino)-5-fluoropyrimidin-2-ylamino)-2-(trifluoromethyl)phenylamino)-3-chloropropa-2-ol] was tested, and the EC50 was 100 to 500 nM.
In the case of `COc1ccc(Nc2ncc(F)c(N[C@H]3CCN4[C@@H](CCC4(C)C)C3)n2)cc1OC(F)F` [Compound 299, N2-(3-(Difluoromethoxy)-4-methoxyphenyl)-N4-((7S,8aS)-3,3-dimethyloctahydroindolizin-7-yl)-5-fluoropyrimidine-2,4-diamine], the EC50 is reported as 100 to 500 nM.
Molecule `CO[C@@H](C)COc1cc(F)c(Nc2ncc(F)c(N[C@@H]3C[C@@H]4CCCN4C(C)(C)C3)n2)cc1-n1nnn(C)c1=O` [Compound 233, 1-(5-((4-(((7R,8aS)-5,5-dimethyloctahydroindolizin-7-yl)amino)-5-fluoropyrimidin-2-yl)amino)-4-fluoro-2-((S)-2-methoxypropoxy)phenyl)-4-methyl-1,4-dihydro-5H-tetrazol-5-one] has an EC50 of 100 to 500 nM.
For `Cn1nnn(-c2cc(Nc3ncc(F)c(N[C@@H]4C[C@@H]5CCCN5C(C)(C)C4)n3)c(F)cc2O[C@@H]2CCOC2)c1=O` [Compound 109, 1-(5-((4-(((7R,8aS)-5,5-dimethyloctahydroindolizin-7-yl)amino)-5-fluoropyrimidin-2-yl)amino)-4-fluoro-2-(((R)-tetrahydrofuran-3-yl)oxy)phenyl)-4-methyl-1,4-dihydro-5H-tetrazol-5-one], the EC50 was 100 to 500 nM.
With `COc1cc(Nc2ncc(Cl)c(N[C@@H]3C[C@@H]4CCCN4C(C)(C)C3)n2)cc(-n2nnnc2C)c1` [Compound 152, 5-chloro-N4-((7R,8aS)-5,5-dimethyloctahydroindolizin-7-yl)-N2-(3-methoxy-5-(5-methyl-1H-tetrazol-1-yl)phenyl)pyrimidine-2,4-diamine] the EC50 was less than 100 nM.
`CC1(C)C[C@H](Nc2nc(Nc3ccc(O[C@@H]4CCN(C5COC5)C[C@H]4F)c(C(F)(F)F)c3)ncc2F)C[C@@H]2CCCN21` [Compound 122] was tested, and the EC50 was 100 to 500 nM.

Same assay, conditions: human primary T cells stimulated with αCD3 and αCD28, 24 hours
In the case of `COc1cc(Nc2ncc(F)c(N[C@H]3C[C@@H]4CCCN4C(C)(C)C3)n2)cc(-n2nnnc2C)c1` (single isomer, unassigned) [Compound 13, (R/S, S/R, R/R, S/S)-5-fluoro-N4-(octahydro-5,5-dimethylindolizin-7-yl)N2-(3-methoxy-5-(5-methyl-1H-tetrazol-1-yl)phenyl)pyrimidine-2,4-diamine], the EC50 is reported as less than 100 nM.
